Experimental data published in the NIST ThermoML archive (doi:10.1016/j.tca.2009.10.010).
± gives the expanded uncertainty stated by the source.

Legend:
[1] = Crystal; visual observation
[2] = Molar enthalpy of transition or fusion; conditions: Crystal; DSC

Q: With `Ic1ccc(I)cc1` [1,4-diiodobenzene] as the compound, how does the Normal melting temperature [1] read?
A: 130.00 ± 1.1 °C

Q: What about the “Molar enthalpy of transition or fusion” value [2] of the same compound?
A: 5.77 ± 0.17 kcal/mol

Q: What does the source list for `Oc1cccc(O)c1` [1,3-benzenediol]?
A: Normal melting temperature [1]: 110.50 ± 1.1 °C; Molar enthalpy of transition or fusion [2]: 5.31 ± 0.158 kcal/mol
